Source: patent publication US20190106460A1, “BINDING INHIBITORS OF THE BETA. TRANSDUCIN REPEAT-CONTAINING PROTEIN” (priority 2011, published 2019)
Non-standard residues stand in square brackets, D forms with d. Residues, ends and D or L forms follow the SMILES beside them. Groups on a side chain read outwards from the residue. *: point of attachment. X3 = CC(C)CCC[C@@H](C)[C@H]1CCC2C3CC=C4C[C@@H](OC(=O)*)CC[C@]4(C)C3CC[C@@]21C; Benzenesulfonyl(4-OMe) = COc1ccc(S(=O)(=O)*)cc1; Phe(3-F) = N[C@@H](Cc1cccc(F)c1)C(=O)O; Ahx = NCCCCCC(=O)O

What was measured:
Format in all cases: cell-based
[1] = system: PDCD4 in MCF7 cells; test: In-cell western assay for PDCD4 accumulation
Experimental: In-Cell Western Assay for PDCD4 Accumulation.
To measure this an in-cell western assay was used and the peptidomimetics were delivered to the cells by nucleofection.
MCF7 cells were grown in 10 cm dishes in 10 ml DMEM+10% FBS and 1% Pen/Strep at 37° C./5% CO2. On the day of nucleofection, the dish was washed with 90% confluent MCF7 cells with 5 ml PBS, then 3 ml of Trypsin/EDTA was added and incubated at 37° C./5% CO2 for approximately 5 mins until the cells detached from the plastic. 7 ml of normal growth media was added and the number of cells present was counted using a haemocytometer.
The cells were centrifuged cells at 90 g for 10 mins at RT and the supernatant was removed. 100 μl of Nucleofection Buffer V+ Supplement was added (Lonza Biologics Cat no VCA-1003) per 8×10^5 cells, and the cells were added to peptidomimetics dissolved in <3% DMSO.
The cell/peptidomimetic mix was added to cuvettes supplied for the nucleofector and the sample was nucleofected using the recommended MCF7 programme for high cell viability (i.e. E-014). 500 μl of TPA (12-O-tetradecanoylphorbol-13-acetate)-supplemented growth media (i.e. DMEM/10% FBS/1% Pen-Strep/10 nM TPA) was added to the cuvette and 100 μl of this solution was transferred to a well of a 96 well plate and incubated at 37° C./5% CO2 for 8 hours.
The celled were fixed by removing the growth media, adding 3.7% Formaldehyde in PBS and incubating at RT for 20 mins. The plate was washed three times in PBS. And the cells were permeabilised by washing 5× for 5 mins each in PBS+0.1% Triton X-100.
The cells were blocked by adding 3% BSA in PBS-Tween to the cells and incubating at RT for 1.5 hours. An anti-PDCD4 antibody (Abcam cat no: ab80590) was added at a concentration of 1:1000 in 3% BSA in PBS-T (50 ul/well) and incubated at RT for 2.5 hours. The cells were washed 5× for 5 mins each with PBS-T before the secondary antibody (LiCor Biosciences Donkey Anti-Rabbit IRDye 800CW cat no 926-32213) was added at a concentration of 1:1000, along with the DNA stain DRAQ5 at a concentration of 1:10000, in 3% BSA in PBS-T (50 ul/well) and incubated at RT for 1 hour, protected from light.
The cells were washed cells 5× for 5 mins each with PBS-T and all the liquid was removed from the wells before the plate was read on the LiCor Biosciences Odyssey at 700 nm and 800 nm. The reading was normalised in the 800 nm channel to that in the 700 nm channel. The data are shown in FIG. 12, where DMSO was used as a negative control and 20 μM MG132 was used as a positive control. The data is presented as percentage activity with DMSO=0% and […]=100% activity. Error bars represent standard deviation from 3 replicates.
The compounds shown in FIGS. 14A-14B were synthesised to improve cell permeability. […] FIG. 16 compares the round II compounds (shown in FIGS. 14A-14B) with UBP036 in this assay. […] Inhibition of βTrCP, which is responsible for the degradation of both PDCD4 and β-catenin, causes a concomitant stabilisation and accumulation of levels of these proteins which can be measured by in cell western assay.

[2] = system: MCF7:GFP-PDCD4^WT; test: Fluorescence reporter assay for PDCD4 accumulation, wild type
Experimental: (§1) Fluorescence Reporter Assay for PDCD4 Accumulation
(§2) This assay uses two stable cell lines expressing PDCD4 fused to a GFP tag.
(§3) The two stable cell lines MCF7:GFP-PDCD4^WT and MCF7:GFP-PDCD4^S71A/S76Awere grown in 10 ml DMEM+10% FBS and 1% Pen/Strep supplemented with 2 mg/ml Geneticin at 37° C./5% CO2. These cell lines were nucleofected as described above except for the additional supplementation of all media with 2 mg/ml Geneticin.
(§4) Fluorescent Reporter Assay
(§5) The cells were fixed by removing the growth media and adding 3.7% Formaldehyde in PBS to the cells. The cells were then incubated at RT for 20 mins and the plates washed 3× in PBS.
(§6) DRAQ5 DNA stain was added to the cells in PBS at a concentration of 1:10000 and incubated at RT for 1 hour protecting from light. The plate was washed 3× in PBS and read on the Perkin Elmer OPERA platform using the nuclei counting algorithm F in both the 488 nm channel (GFP) and 640 nm channel (DRAQ5). DMSO was used as a negative control and 10 μM MG132 was used as a positive control. Error bars represent standard deviation from 6 replicates. The data are expressed as percentage activity with DMSO (WT)=0% and 10 μM MG132 (WT)=100% activity.
(§7) This confirms that the stabilisation resulting from the compounds is dependent on the βTrCP/PDCD4 interaction and is not due to another mechanism such as a global increase in protein production.

[3] = system: MCF7:GFP-PDCD4^S71A/S76A; test: Fluorescence reporter assay for PDCD4 accumulation, mutant; details: PDCD4 mutated to eliminate PDCD4-βTrCP interaction
Experimental: as §1, §2, §3, §4, §5, §6, §7

COc1ccc(S(=O)(=O)N[C@H](CC(=O)O)C(=O)N[C@@H](CCC(=O)O)C(=O)NCC(=O)N[C@@H](Cc2cccc(F)c2)C(=O)N[C@@H](Cc2c[nH]c3ccccc23)C(=O)N[C@@H](CCC(=O)O)C(=O)NCCCCCC(=O)N[C@@H](CCCCNC(=O)CCCCCNC(=O)O[C@H]2CC[C@@]3(C)C(=CCC4C3CC[C@@]3(C)C4CC[C@@H]3[C@H](C)CCCC(C)C)C2)C(N)=O)cc1 (stereo partly shown) [UBP036, 4-(MeO)PhSO2-dEGF(3F)WE-Ahx-K(Ahx-Chol)-NH2] ({Benzenesulfonyl(4-OMe)}-[dD]EG[Phe(3-F)]WE[Ahx]K([Ahx-X3])-NH2)
accumulation of PDCD4, in cell western ([1]; MCF7, treatment with cell permeable compound): accumulation of PDCD4
cell based activity ([1]; general statement, different delivery vehicles): display cell based activity
accumulation of GFP-PDCD4, fluorescent reporter assay [2]: GFP-PDCD4 accumulation
accumulation of GFP-PDCD4 Mut, fluorescent reporter assay [3]: no accumulation of PDCD4
